BindingDB's records for doi:10.1111/cbdd.12681 (Peking University, 2016)

target: T1, Dihydrofolate reductase (Homo sapiens, UniProt P00374); test: DHFR Inhibition Assay; details: pH 7.5
T1 sequence (P00374 whole entry): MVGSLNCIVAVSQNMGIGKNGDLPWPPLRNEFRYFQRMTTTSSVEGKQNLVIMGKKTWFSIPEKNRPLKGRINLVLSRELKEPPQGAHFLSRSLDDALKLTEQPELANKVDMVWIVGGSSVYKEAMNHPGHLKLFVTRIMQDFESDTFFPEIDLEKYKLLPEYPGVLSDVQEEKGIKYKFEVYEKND
Description: The recombinant human (rh) DHFR was purchased from Sigma-Aldrich (Shanghai, China). All rhDHFR enzymes were assayed spectrophotometrically in a solution containing 0.1 mM dihydrofolate, 0.3 mM NADPH and 100 mM KCl at pH 7.5 and 32 °C. The reaction was initiated with an amount of enzyme yielding a change in O.D. at 340 nm measured by microplate spectrophotometer.

IC50 [nM] | Compound
298 | C=CCN1c2c(O)nc(N)nc2CCC1CCc1ccc(C(=O)N[C@@H](CCC(=O)O)C(=O)O)cc1 (stereo partly drawn) [4-[2-(2-Amino-4-hydroxy-5-allyl-5,6,7,8-tetrahydropyrido[3,2-d]pyrimidin-6-yl)ethyl]benzoyl-L-glutamic acid (23a)]
10100 | Nc1nc(O)c2c(n1)CCC(CCc1ccc(C(=O)N[C@@H](CCC(=O)O)C(=O)O)cc1)N2C=O (stereo partly drawn) [4-[2-(2-Amino-4-hydroxy-5-formyl-5,6,7,8-tetrahydropyrido[3,2-d]pyrimidin-6-yl)ethyl] benzoyl-L-glutamic acid (22a)]
59 | Nc1nc(O)c2c(n1)CCC(CCc1ccc(C(=O)N[C@@H](CCC(=O)O)C(=O)O)cc1)N2 (stereo partly drawn) [4-[2-(2-Diamino-4-hydroxy-5,6,7,8-tetrahydropyrido[3,2-d]pyrimidin-6-yl)ethyl]benzoyl-L-glutamic acid (18a)]
680 | Nc1nc(N)c2c(n1)CCC(CCc1ccc(C(=O)N[C@@H](CCC(=O)O)C(=O)O)cc1)N2CC(Br)CBr (stereo partly drawn) [4-[2-[2,4-Diamino-5-(2,3-dibromopropyl)-5,6,7,8-tetrahydropyrido[3,2-d]pyrimidin-6-yl]ethyl]benzoyl-L-glutamic acid (21a)]
590 | Nc1nc(N)c2c(n1)CCC(CNc1ccc(C(=O)N[C@@H](CCC(=O)O)C(=O)O)cc1)N2C=O (stereo partly drawn) [N-[4-[2-(2,4-Diamino-5-formyl-5,6,7,8-tetrahydropyrido[3,2-d]pyrimidin-6-yl)methyl]amino]benzoyl]-L-glutamic acid (24a)]

Continued, compound first:

Compound | IC50 [nM]
Nc1nc(N)c2c(n1)CCC(CCc1ccc(C(=O)N[C@@H](CCC(=O)O)C(=O)O)cc1)N2 (stereo partly drawn) [4-[2-(2,4-Diamino-5,6,7,8-tetrahydropyrido[3,2-d]pyrimidin-6-yl)ethyl]benzoyl-L-glutamic acid (17a)] | 40
C=CCN1c2c(N)nc(N)nc2CCC1CCc1ccc(C(=O)N[C@@H](CCC(=O)O)C(=O)O)cc1 (stereo partly drawn) [4-[2-(2,4-Diamino-5-allyl-5,6,7,8-tetrahydropyrido[3,2-d]pyrimidin-6-yl)ethyl]benzoyl-L-glutamic acid (20a)] | 706
Nc1nc(N)c2c(n1)CCC(CCc1ccc(C(=O)N[C@@H](CCC(=O)O)C(=O)O)cc1)N2C=O (stereo partly drawn) [4-[2-(2,4-Diamino-5-formyl-5,6,7,8-tetrahydropyrido[3,2-d]pyrimidin-6-yl)ethyl]benzoyl-L-glutamic acid (19a)] | 41
